Assay results published in the NIST ThermoML archive (doi:10.1021/je050540h).

Assay: xn = mol fraction of the nth substance listed
Conditions: Liquid; for speed of sound: 7 kPa; for mass density / viscosity: 101 kPa

CCCC(C)O (stereo not drawn) [pentan-2-ol] + C1CCCCC1
Conditions	mass density, 293.15 K [kg/m3]	mass density, 298.15 K [kg/m3]	mass density, 303.15 K [kg/m3]	speed of sound, 293.15 K [m/s]	speed of sound, 298.15 K [m/s]	speed of sound, 303.15 K [m/s]	viscosity, 293.15 K [mPa·s]	viscosity, 298.15 K [mPa·s]	viscosity, 303.15 K [mPa·s]
x2 = 0	809.04	805.01	800.9	1250	1232	1214	4.001	3.273	2.774
x2 = 0.0495	806.87	802.77	798.6	1247	1229	1210	3.606	2.969	2.474
x2 = 0.1002	804.68	800.52	796.28	1244	1225	1206	3.195	2.658	2.237
x2 = 0.2019	800.29	796	791.65	1238	1218	1199	2.516	2.125	1.82
x2 = 0.3067	796.06	791.67	787.23	1234	1213	1193	1.922	1.659	1.441
x2 = 0.4011	792.42	787.98	783.48	1231	1210	1189	1.583	1.385	1.233
x2 = 0.5085	788.62	784.11	779.56	1230	1209	1187	1.317	1.178	1.058
x2 = 0.6066	785.63	781.09	776.49	1232	1211	1189	1.17	1.056	0.957
x2 = 0.7118	782.94	778.32	773.65	1239	1216	1194	1.067	0.97	0.885
x2 = 0.8096	780.86	776.18	771.44	1247	1224	1201	1.045	0.952	0.871
x2 = 0.9049	779.29	774.54	769.74	1259	1235	1211	1.009	0.924	0.845
x2 = 0.9557	778.62	773.86	769.07	1267	1243	1219	0.997	0.912	0.837
